Measured values: US4349545A, “Novel erythromycin a derivatives” (Roussel Uclaf, priority 1980, dated 1982)
≈ marks a conversion by molar mass, not a printed value.

Key:
[1] = system: Streptococcus faecalis 99 F 74; assay: serial dilution liquid medium MIC, Streptococcus faecalis 99 F 74; type: cell-based; details: Enterococcus faecalis, 99F74, 24 hours at 37° C., read-out: minimum inhibiting concentration (MIC)
Description: (§1) The method was a serial dilution of liquid medium test wherein a series of tubes were prepared containing the same amount of sterile nutritive medium and increasing amounts of the test product was distributed in each tube. The tubes were then seeded with a bacterial strain and incubated for 24 hours in an oven at 37° C. The degree of inhibition was determined by transillumination to determine the minimum inhibiting concentration (MIC) express in μg/ml and the results are reported in the following Tables.

[2] = system: Staphylococcus aureus exp. n° 54 146; assay: serial dilution liquid medium MIC, Staphylococcus aureus exp. n° 54 146; type: cell-based; details: Staphylococcus aureus exp. 54 146; 24 hours at 37° C.; read-out: minimum inhibiting concentration (MIC)
Description: as §1

[3] = system: Streptococcus pyogenes A 561; assay: serial dilution liquid medium MIC, Streptococcus pyogenes A 561; type: cell-based; details: A561, 24 hours at 37° C., read-out: minimum inhibiting concentration (MIC)
Description: as §1

[4] = system: Staphylococcus aureus UC 1128; assay: serial dilution liquid medium MIC, Staphylococcus aureus UC 1128 pen-resistant; type: cell-based; details: UC1128; Staphylococcus aureus UC 1128 pen-resistant; 24 hours at 37° C.; read-out: minimum inhibiting concentration (MIC)
Description: as §1

[5] = system: Streptococcus faecalis 5435; assay: serial dilution liquid medium MIC, Streptococcus faecalis 5435; type: cell-based; details: Enterococcus faecalis, 24 hours at 37° C., read-out: minimum inhibiting concentration (MIC)
Description: as §1

[6] = system: Streptococcus faecalis 5432; assay: serial dilution liquid medium MIC, Streptococcus faecalis 5432; type: cell-based; details: Enterococcus faecalis, 24 hours at 37° C., read-out: minimum inhibiting concentration (MIC)
Description: as §1

[7] = system: Staphylococcus aureus 1061; assay: serial dilution liquid medium MIC, Staphylococcus aureus 1061 pen-sensibles; type: cell-based; details: 24 hours at 37° C., read-out: minimum inhibiting concentration (MIC)
Description: as §1

[8] = system: Staphylococcus aureus No. 54,146; assay: In vivo activity in mice experimentally infected with Staphylococcus aureus No. 54,146; details: groups of 10 mice
Description: The test was effected with the compounds of the invention and erythromycin as a reference on groups of 10 mice weighing about 21 g experimentally infected with Staphylococcus aureus No. 54,146 by intraperitoneal administration of 0.5 ml of a 22 hour culture of the said organism in bouillon with a pH of 7 diluted to 1/6 with physiological water. The test compounds were orally administrated to the mice 1,5 and 24 hours after the infection and the mortality on the 8th day was determined.

[9] = dose 0,5mg oral, 1,5 and 24 hours after infection
[10] = dose 0,25mg oral, 1,5 and 24 hours after infection

Row | Compound | MIC [1] [mg/L] | MIC [2] [mg/L] | MIC [3] [mg/L] | MIC [4] [mg/L] | MIC [5] [mg/L] | MIC [6] [mg/L] | MIC [7] [mg/L] | No. of mice living on the 8th day ([8]; dose 0,75mg oral, 1,5 and 24 hours after infection) [mice] | No. of mice living on the 8th day ([8]; dose 1mg oral, 1,5 and 24 hours after infection) [mice] | No. of mice living on the 8th day ([8]; dose 2mg oral, 1,5 and 24 hours after infection) [mice] | No. of mice living on the 8th day ([8]; dose 1,5mg oral, 1,5 and 24 hours after infection) [mice] | No. of mice living on the 8th day [8, 9] [mice] | No. of mice living on the 8th day [8, 10] [mice]
1 | CC[C@H]1OC(=O)[C@H](C)[C@@H](O[C@H]2C[C@@](C)(OC)[C@@H](O)[C@H](C)O2)[C@H](C)[C@@H](O[C@@H]2O[C@H](C)C[C@H](N(C)C)[C@H]2O)[C@](C)(O)C[C@@H](C)C(=NOCOCCN(C)C)[C@H](C)[C@@H](O)[C@]1(C)O [Example 22, 9-[0-{(2-dimethylaminoethoxy)-methyl}-oxime] of erythromycin] | 0.05 (≈ 0.0588 µM) | 0.4 (≈ 0.471 µM) | ≤ 0.01 | 0.6 (≈ 0.706 µM) | 0.2 (≈ 0.235 µM) | 0.05 (≈ 0.0588 µM) | 0.4 (≈ 0.471 µM) |  |  |  |  |  | 
2 | CC[C@H]1OC(=O)[C@H](C)[C@@H](O[C@H]2C[C@@](C)(OC)[C@@H](O)[C@H](C)O2)[C@H](C)[C@@H](O[C@@H]2O[C@H](C)C[C@H](N(C)C)[C@H]2O)[C@](C)(O)C[C@@H](C)C(=NOCCN2CCN(C)CC2)[C@H](C)[C@@H](O)[C@]1(C)O [Example 43, 9-[O-(2-{4-methyl-piperazino-1-yl}-ethyl)-oxime] of erythromycin] | 0.05 (≈ 0.0571 µM) | 1 (≈ 1.14 µM) | ≤ 0.01 | 2 (≈ 2.29 µM) | 0.4 (≈ 0.457 µM) | 0.2 (≈ 0.229 µM) | 1 (≈ 1.14 µM) |  |  |  |  |  | 
3 | CC[C@H]1OC(=O)[C@H](C)[C@@H](O[C@H]2C[C@@](C)(OC)[C@@H](O)[C@H](C)O2)[C@H](C)[C@@H](O[C@@H]2O[C@H](C)C[C@H](N(C)C)[C@H]2O)[C@](C)(O)C[C@@H](C)C(=O)[C@H](C)[C@@H](O)[C@]1(C)O [Erythromycin, erythromycin] |  |  |  |  |  |  |  | 5 | 9 | 10 | 9 |  | 
4 | CC[C@H]1OC(=O)[C@H](C)[C@@H](O[C@H]2C[C@@](C)(OC)[C@@H](O)[C@H](C)O2)[C@H](C)[C@@H](O[C@@H]2O[C@H](C)C[C@H](N(C)C)[C@H]2O)[C@](C)(O)C[C@@H](C)C(=NOCOCCN)[C@H](C)[C@@H](O)[C@]1(C)O [Example 24, 9-[0-{(2-aminoethoxy}-methyl)-oxime] of erythromycin] | 0.1 (≈ 0.122 µM) | 0.4 (≈ 0.487 µM) | ≤ 0.01 | 0.4 (≈ 0.487 µM) | 0.2 (≈ 0.243 µM) | 0.05 (≈ 0.0608 µM) | 0.1 (≈ 0.122 µM) |  |  |  |  |  | 
5 | CCSCC(O)CON=C1[C@H](C)C[C@@](C)(O)[C@H](O[C@@H]2O[C@H](C)C[C@H](N(C)C)[C@H]2O)[C@@H](C)[C@H](O[C@H]2C[C@@](C)(OC)[C@@H](O)[C@H](C)O2)[C@@H](C)C(=O)O[C@H](CC)[C@@](C)(O)[C@H](O)[C@H]1C (stereo partly shown) [Example 16, 9-[0-(3-ethylthio-2-hydroxy-propyl)-oxime] of erythromycin] | 0.1 (≈ 0.115 µM) | 0.4 (≈ 0.461 µM) | 0.05 (≈ 0.0577 µM) | 0.6 (≈ 0.692 µM) | 1 (≈ 1.15 µM) | 0.2 (≈ 0.231 µM) | 0.4 (≈ 0.461 µM) |  |  |  |  |  | 
6 | CCSCCON=C1[C@H](C)C[C@@](C)(O)[C@H](O[C@@H]2O[C@H](C)C[C@H](N(C)C)[C@H]2O)[C@@H](C)[C@H](O[C@H]2C[C@@](C)(OC)[C@@H](O)[C@H](C)O2)[C@@H](C)C(=O)O[C@H](CC)[C@@](C)(O)[C@H](O)[C@H]1C [Example 13, 9-[0-(2-ethylthioethyl)-oxime] of erythromycin] | 0.1 (≈ 0.119 µM) | 0.4 (≈ 0.478 µM) | 0.02 (≈ 0.0239 µM) | 0.6 (≈ 0.717 µM) | 0.4 (≈ 0.478 µM) | 0.01 (≈ 0.0119 µM) | 0.4 (≈ 0.478 µM) |  |  |  |  |  | 
7 | CC[C@H]1OC(=O)[C@H](C)[C@@H](O[C@H]2C[C@@](C)(OC)[C@@H](O)[C@H](C)O2)[C@H](C)[C@@H](O[C@@H]2O[C@H](C)C[C@H](N(C)C)[C@H]2O)[C@](C)(O)C[C@@H](C)C(=NOCCN(CC)CC)[C@H](C)[C@@H](O)[C@]1(C)O [Example 31, 9-[0-(2-diethylaminoethyl)-oxime] of erythromycin] | 0.1 (≈ 0.118 µM) | 1 (≈ 1.18 µM) | 0.02 (≈ 0.0236 µM) | 1 (≈ 1.18 µM) |  | 0.1 (≈ 0.118 µM) | 0.5 (≈ 0.59 µM) |  |  |  |  | 10 | 4
8 | CC[C@H]1OC(=O)[C@H](C)[C@@H](O[C@H]2C[C@@](C)(OC)[C@@H](O)[C@H](C)O2)[C@H](C)[C@@H](O[C@@H]2O[C@H](C)C[C@H](N(C)C)[C@H]2O)[C@](C)(O)C[C@@H](C)C(=NOCCN(C(C)C)C(C)C)[C@H](C)[C@@H](O)[C@]1(C)O [Example 41, 9-[O-(2-disopropylamino-ethyl)-oxime] of erythromycin] | 0.2 (≈ 0.228 µM) | 1 (≈ 1.14 µM) | 0.05 (≈ 0.0571 µM) | 1 (≈ 1.14 µM) |  | 0.2 (≈ 0.228 µM) | 0.5 (≈ 0.571 µM) |  |  |  |  | 10 | 9
